According to US12077503B2, “Substituted cyclic amides and their use as herbicides” (FMC CORPORATION, priority 2015, dated 2024):

Key:
Format in all cases: in vivo
Kochia (Kochia scoparia) [1] = test: Test A preemergence
From the text: (§1) Seeds of plant species selected from barnyardgrass (Echinochloa crus-galli), Kochia (Kochia scoparia), ragweed (common ragweed, Ambrosia elatior), ryegrass, Italian (Italian ryegrass, Lolium multiflorum), crabgrass, large (Digitaria sanguinalis), giant foxtail (Setaria faberii), green foxtail (Setaria viridis), morningglory (Ipomoea spp.), pigweed (Amaranthus retroflexus), velvetleaf (Abutilon theophrasti), wheat (Triticum aestivum), and corn (Zea mays) were planted into a blend of loam soil and sand and treated preemergence with a directed soil spray using test chemicals formulated in anon-phytotoxic solvent mixture which included a surfactant.
(§2) At the same time, plants selected from these crop and weed species and also blackgrass (Alopecurus myosuroides), and Galium (catchweed bedstraw, Galium aparine) were planted in pots containing the same blend of loam soil and sand and treated with postemergence applications of test chemicals formulated in the same manner. Plants ranged in height from 2 to 10 cm and were in the one- to two-leaf stage for the postemergence treatment. Treated plants and untreated controls were maintained in a greenhouse for approximately 10 d, after which time all treated plants were compared to untreated controls and visually evaluated for injury. Plant response ratings, summarized in Table A, are based on a 0 to 100 scale where 0 is no effect and 100 is complete control. A dash (-) response means no test result.

[2] = system: barnyardgrass (Echinochloa crus-galli); test: Test A preemergence
From the text: as §1, §2

[3] = system: giant foxtail (Setaria faberii); test: Test A preemergence; details: for Plant response rating, Foxtail, Giant: 125 g ai/ha
From the text: as §1, §2

[4] = system: pigweed (Amaranthus retroflexus); test: Test A preemergence
From the text: as §1, §2

[5] = system: ragweed (common ragweed, Ambrosia elatior); test: Test A preemergence; details: for Plant response rating, Ragweed: 125 g ai/ha
From the text: as §1, §2

[6] = system: ryegrass, Italian (Italian ryegrass, Lolium multiflorum); test: Test A preemergence; details: Preemergence; for Plant response rating, Ryegrass, Italian: 125 g ai/ha
From the text: as §1, §2

[7] = system: Galium (catchweed bedstraw, Galium aparine); test: Test A postemergence
From the text: as §1, §2

Kochia (Kochia scoparia) [8] = test: Test A postemergence
From the text: as §1, §2

[9] = system: barnyardgrass (Echinochloa crus-galli); test: Test A postemergence
From the text: as §1, §2

[10] = system: blackgrass (Alopecurus myosuroides); test: Test A postemergence; details: for Plant response rating, Blackgrass: 500 g ai/ha
From the text: as §1, §2

corn (Zea mays) = test: Test A postemergence; details: for Plant response rating, Corn: 500 g ai/ha
From the text: as §1, §2

[11] = system: giant foxtail (Setaria faberii); test: Test A postemergence
From the text: as §1, §2

[12] = system: pigweed (Amaranthus retroflexus); test: Test A postemergence; details: for Plant response rating, Pigweed: 500 g ai/ha
From the text: as §1, §2

[13] = system: ragweed (common ragweed, Ambrosia elatior); test: Test A postemergence; details: for Plant response rating, Ragweed: 500 g ai/ha
From the text: as §1, §2

[14] = system: ryegrass, Italian (Italian ryegrass, Lolium multiflorum); test: Test A postemergence
From the text: as §1, §2

[15] = system: wheat (Triticum aestivum); test: Test A postemergence; details: for Plant response rating, Wheat: 500 g ai/ha
From the text: as §1, §2

[16] = system: barnyardgrass (Echinochloa crus-galli); test: Test B flooded paddy test; details: Flood, 250 g ai/ha, 0 to 100 scale where 0 is no effect and 100 is complete control
Protocol: (§3) Plant species in the flooded paddy test selected from rice (Oryra sativa), sedge, umbrella (small-flower umbrella sedge, Cyperus difformis), ducksalad (Heteranthera limosa), and barnyardgrass (Echinochloa crus-galli) were grown to the 2-leaf stage for testing. At time of treatment, test pots were flooded to 3 cm above the soil surface, treated by application of test compounds directly to the paddy water, and then maintained at that water depth for the duration of the test. Treated plants and controls were maintained in a greenhouse for 13 to 15 d, after which time all species were compared to controls and visually evaluated. Plant response ratings, summarized in Table B, are based on a scale of 0 to 100 where 0 is no effect and 100 is complete control. A dash (-) response means no test result.

[17] = system: ducksalad (Heteranthera limosa); test: Test B flooded paddy test; details: Flood, 250 g ai/ha, 0 to 100 scale where 0 is no effect and 100 is complete control
Protocol: as §3

rice (Oryra sativa) = test: Test B flooded paddy test; details: Flood, 250 g ai/ha, 0 to 100 scale where 0 is no effect and 100 is complete control
Protocol: as §3

[18] = system: sedge, umbrella (small-flower umbrella sedge, Cyperus difformis); test: Test B flooded paddy test; details: Flood, 250 g ai/ha
Protocol: as §3

[19] = 125 g ai/ha, Preemergence, visual injury after approximately 10 d, 0 to 100 scale where 0 is no effect and 100 is complete control
[20] = Preemergence, 500 g ai/ha, visual injury approx. 10 d
[21] = Preemergence, visual injury after approximately 10 d, 0 to 100 scale where 0 is no effect and 100 is complete control
[22] = 125 g ai/ha, postemergence, visual injury rating on 0 to 100 scale (0 no effect, 100 complete control), approx. 10 d
[23] = Postemergence, 500 g ai/ha, 0 to 100 scale where 0 is no effect and 100 is complete control
[24] = Postemergence, 0 to 100 scale where 0 is no effect and 100 is complete control
[25] = Preemergence, 0 to 100 scale (0 no effect, 100 complete control)
[26] = 500 g ai/ha, preemergence, 0 to 100 scale where 0 is no effect and 100 is complete control
[27] = 125 g ai/ha, Postemergence, visual rating about 10 d after treatment
[28] = Postemergence, visual injury, 0 to 100 scale (0 no effect, 100 complete control), approx. 10 d

With Cc1ccc(C2CNC(=O)C2C(=O)Nc2ccccc2S(C)(=O)=O)c(F)c1 (racemic) [Compound 507] the “Plant response rating, Kochia” value (Kochia (Kochia scoparia) [1]; [19]) was 0, the “Kochia plant response rating (0 to 100 scale, 0 is no effect, 100 is complete control)” value (Kochia (Kochia scoparia) [1]; [20]) was 70 and the “Plant response rating, Barnyardgrass” value [2, 19] was 40. For the same compound, the “Barnyardgrass plant response rating (0 to 100 scale, 0 is no effect, 100 is complete control)” value [2, 20] was 80, the “Plant response rating, Foxtail, Giant” value [3, 21] was 0 and the “Foxtail, Giant plant response rating (0 to 100 scale, 0 is no effect, 100 is complete control)” value [3, 20] was 50. The “Plant response rating, Pigweed” value [4, 19] was 0, the “Pigweed plant response rating (0 to 100 scale, 0 is no effect, 100 is complete control)” value [4, 20] was 20 and the “Plant response rating, Ragweed” value [5, 21] was 0. For the same compound, the “Ragweed plant response rating (0 to 100 scale, 0 is no effect, 100 is complete control)” value [5, 20] was 0, the “Plant response rating, Ryegrass, Italian” value ([6]; visual injury after approximately 10 d, 0 to 100 scale where 0 is no effect and 100 is complete control) was 0 and the “Ryegrass, Italian plant response rating (0 to 100 scale, 0 is no effect, 100 is complete control)” value ([6]; 500 g ai/ha, visual injury approx. 10 d) was 0. The “Galium plant response rating” value [7, 22] was 0, the “Plant response rating, Galium” value [7, 23] was 20 and the “Kochia plant response rating” value (Kochia (Kochia scoparia) [8]; [22]) was 30. The “Plant response rating, Kochia” value (Kochia (Kochia scoparia) [8]; [23]) was 70, the “Barnyardgrass plant response rating” value [9, 22] was 20 and the “Plant response rating, Barnyardgrass” value [9, 23] was 60. For the same compound, the “Blackgrass plant response rating” value [10, 22] was 0, the “Plant response rating, Blackgrass” value [10, 24] was 0 and the “Corn plant response rating” value (corn (Zea mays); [22]) was 0. For the same compound, the “Plant response rating, Corn” value (corn (Zea mays); [24]) was 0, the “Foxtail, Giant plant response rating” value [11, 22] was 0 and the “Plant response rating, Foxtail, Giant” value [11, 23] was 20. The “Pigweed plant response rating” value [12, 22] was 0, the “Plant response rating, Pigweed” value [12, 24] was 0 and the “Ragweed plant response rating” value [13, 22] was 0. For the same compound, the “Plant response rating, Ragweed” value [13, 24] was 20, the “Ryegrass, Italian plant response rating” value [14, 22] was 0 and the “Plant response rating, Ryegrass, Italian” value [14, 23] was 0. For the same compound, the “Wheat plant response rating” value [15, 22] was 0, the “Plant response rating, Wheat” value [15, 24] was 0 and the “Plant response rating, Barnyardgrass” value ([16]; 13 to 15 d) was 0. The “Plant response rating, Ducksalad” value ([17]; 13 to 15 d) was 75, the “Plant response rating, Rice” value (rice (Oryra sativa); 13 to 15 d) was 0 and the “Plant response rating, Sedge, Umbrella” value ([18]; 0 to 100 scale where 0 is no effect and 100 is complete control, 13 to 15 d) was 0.

Cc1cc([C@H]2CN(C)C(=O)[C@@H]2C(=O)Nc2ccccc2[S+](C)[O-])ccc1F (stereo partly drawn) [Compound 1313] was tested, and the pest or weed control at 500 g/ha (Kochia (Kochia scoparia) [1]; Bassia scoparia, pre-emergence, 240 h, 500 g ai/ha, preemergence, 0 to 100 scale where 0 is no effect and 100 is complete control, read-out: Kochia plant response rating) was 100%, the pest or weed control at 125 g/ha (Kochia (Kochia scoparia) [1]; Bassia scoparia, pre-emergence, 240 h, Preemergence, 125 g ai/ha, 0 to 100 scale (0 no effect, 100 complete control), read-out: Plant response rating, Kochia) was 90% and the pest or weed control at 500 g/ha ([2]; Echinochloa crus-galli, pre-emergence, 240 h, 500 g ai/ha, preemergence, 0 to 100 scale where 0 is no effect and 100 is complete control, read-out: Barnyardgrass plant response rating) was 100%. For the same compound, the pest or weed control at 125 g/ha ([2]; Echinochloa crus-galli, pre-emergence, 240 h, Preemergence, 125 g ai/ha, 0 to 100 scale (0 no effect, 100 complete control), read-out: Plant response rating, Barnyardgrass) was 90%, the “Plant response rating, Foxtail, Giant” value [3, 25] was 20 and the pest or weed control at 500 g/ha ([3]; Setaria faberi, pre-emergence, 240 h, 500 g ai/ha, preemergence, 0 to 100 scale where 0 is no effect and 100 is complete control, read-out: Foxtail, Giant plant response rating) was 80%. The “Pigweed plant response rating” value [4, 26] was 0, the pest or weed control at 125 g/ha ([4]; Amaranthus retroflexus, pre-emergence, 240 h, Preemergence, 125 g ai/ha, 0 to 100 scale (0 no effect, 100 complete control), read-out: Plant response rating, Pigweed) was 0% and the “Ragweed plant response rating” value [5, 26] was 0. For the same compound, the “Plant response rating, Ragweed” value [5, 25] was 0, the “Plant response rating, Ryegrass, Italian” value ([6]; 0 to 100 scale (0 no effect, 100 complete control)) was 0 and the “Galium plant response rating (0 to 100 scale)” value [7, 27] was 0. The pest or weed control at 500 g/ha ([7]; Galium, post-emergence, 240 h, Postemergence, 500 g ai/ha, visual injury, 0 to 100 scale (0 no effect, 100 complete control), approx. 10 d, read-out: Plant response rating, Galium) was 40%, the “Kochia plant response rating (0 to 100 scale)” value (Kochia (Kochia scoparia) [8]; [27]) was 20 and the pest or weed control at 500 g/ha (Kochia (Kochia scoparia) [8]; Bassia scoparia, post-emergence, 240 h, Postemergence, 500 g ai/ha, visual injury, 0 to 100 scale (0 no effect, 100 complete control), approx. 10 d, read-out: Plant response rating, Kochia) was 50%. The pest or weed control at 125 g/ha ([10]; Alopecurus myosuroides, post-emergence, 240 h, 125 g ai/ha, Postemergence, visual rating about 10 d after treatment, read-out: Blackgrass plant response rating (0 to 100 scale)) was 0%, the “Plant response rating, Blackgrass” value [10, 28] was 0 and the “Corn plant response rating (0 to 100 scale)” value (corn (Zea mays); [27]) was 0. For the same compound, the “Plant response rating, Corn” value (corn (Zea mays); [28]) was 0, the pest or weed control at 125 g/ha ([11]; Setaria faberi, post-emergence, 240 h, 125 g ai/ha, Postemergence, visual rating about 10 d after treatment, read-out: Foxtail, Giant plant response rating (0 to 100 scale)) was 90% and the pest or weed control at 500 g/ha ([11]; Setaria faberi, post-emergence, 240 h, Postemergence, 500 g ai/ha, visual injury, 0 to 100 scale (0 no effect, 100 complete control), approx. 10 d, read-out: Plant response rating, Foxtail, Giant) was 90%. The pest or weed control at 125 g/ha ([12]; Amaranthus retroflexus, post-emergence, 240 h, 125 g ai/ha, Postemergence, visual rating about 10 d after treatment, read-out: Pigweed plant response rating (0 to 100 scale)) was 0%, the “Plant response rating, Pigweed” value [12, 28] was 0 and the pest or weed control at 125 g/ha ([13]; Ambrosia artemisiifolia, post-emergence, 240 h, 125 g ai/ha, Postemergence, visual rating about 10 d after treatment, read-out: Ragweed plant response rating (0 to 100 scale)) was 0%. The “Plant response rating, Ragweed” value [13, 28] was 0, the pest or weed control at 125 g/ha ([14]; Lolium multiflorum, post-emergence, 240 h, 125 g ai/ha, Postemergence, visual rating about 10 d after treatment, read-out: Ryegrass, Italian plant response rating (0 to 100 scale)) was 0% and the pest or weed control at 500 g/ha ([14]; Lolium multiflorum, post-emergence, 240 h, Postemergence, 500 g ai/ha, visual injury, 0 to 100 scale (0 no effect, 100 complete control), approx. 10 d, read-out: Plant response rating, Ryegrass, Italian) was 0%. The “Wheat plant response rating (0 to 100 scale)” value [15, 27] was 0, the “Plant response rating, Wheat” value [15, 28] was 0 and the “Barnyardgrass plant response rating” value [16] was 25. For the same compound, the “Ducksalad plant response rating” value [17] was 70, the pest or weed control at 250 g/ha (rice (Oryra sativa); Oryza sativa, read-out: Rice plant response rating) was 0% and the pest or weed control at 250 g/ha ([18]; Cyperus difformis, 360 h, visually evaluated after 13 to 15 d, read-out: Plant response rating, Sedge, Umbrella (0 to 100 scale where 0 is no effect and 100 is complete control)) was 0%.
